Tests used:
ROCK1 = ROCK1 (Homo sapiens, UniProt Q13464); experiment: Kinase selectivity profiling, Rho-associated, coiled-coil containing protein kinase 1; format: biochemical; conditions: read-out: Percentage inhibition of ROCK1
Procedure: (§1) The selectivity of compounds against a panel of 50 human protein kinases was assessed using a non-radiometric assay.

PYK2 = PYK2 (Homo sapiens, UniProt Q14289); experiment: Kinase selectivity profiling, Proline-rich tyrosine kinase 2; format: biochemical; conditions: read-out: Percentage inhibition of PYK2
Procedure: as §1

JAK3 = target: T1, JAK3 (Homo sapiens, UniProt P52333); experiment: Kinase selectivity profiling, Janus kinase 3; format: biochemical; conditions: 0.1 µM inhibitor, ATP at Km; for inhibition at 0.1 µM: read-out: Percentage inhibition of JAK3
T1 sequence (P52333 1-1124): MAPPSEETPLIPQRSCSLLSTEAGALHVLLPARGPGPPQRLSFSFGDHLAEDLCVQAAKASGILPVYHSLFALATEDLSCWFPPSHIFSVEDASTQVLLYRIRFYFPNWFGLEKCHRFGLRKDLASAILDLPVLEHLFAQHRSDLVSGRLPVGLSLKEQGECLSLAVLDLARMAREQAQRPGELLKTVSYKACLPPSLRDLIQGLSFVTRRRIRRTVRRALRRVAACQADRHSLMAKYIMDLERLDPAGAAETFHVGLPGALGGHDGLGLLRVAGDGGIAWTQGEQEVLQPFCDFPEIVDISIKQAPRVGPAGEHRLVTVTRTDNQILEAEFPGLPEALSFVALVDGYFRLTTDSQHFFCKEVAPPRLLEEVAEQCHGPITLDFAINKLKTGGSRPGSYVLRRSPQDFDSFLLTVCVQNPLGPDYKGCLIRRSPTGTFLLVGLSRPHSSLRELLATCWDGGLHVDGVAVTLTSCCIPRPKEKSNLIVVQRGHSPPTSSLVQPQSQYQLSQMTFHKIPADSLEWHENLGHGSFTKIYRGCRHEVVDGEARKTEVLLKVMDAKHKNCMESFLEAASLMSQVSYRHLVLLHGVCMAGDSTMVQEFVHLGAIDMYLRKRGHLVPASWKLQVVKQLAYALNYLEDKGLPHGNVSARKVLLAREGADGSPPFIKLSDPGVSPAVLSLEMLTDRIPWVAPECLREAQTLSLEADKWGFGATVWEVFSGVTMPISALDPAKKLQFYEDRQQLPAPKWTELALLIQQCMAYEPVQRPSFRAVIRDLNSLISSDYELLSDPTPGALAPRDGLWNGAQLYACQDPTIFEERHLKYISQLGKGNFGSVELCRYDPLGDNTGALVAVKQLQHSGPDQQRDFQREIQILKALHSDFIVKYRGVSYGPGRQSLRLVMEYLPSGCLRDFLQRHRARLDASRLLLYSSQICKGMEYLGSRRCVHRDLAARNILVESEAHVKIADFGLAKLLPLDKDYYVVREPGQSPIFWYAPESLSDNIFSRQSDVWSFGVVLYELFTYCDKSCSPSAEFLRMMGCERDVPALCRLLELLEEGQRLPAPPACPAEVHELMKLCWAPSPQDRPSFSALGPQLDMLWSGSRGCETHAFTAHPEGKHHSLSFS
Procedure: as §1

PIM1 = PIM1 (Homo sapiens, UniProt P11309); experiment: Kinase selectivity profiling, Pim-1 oncogene; format: biochemical; conditions: read-out: Percentage inhibition of PIM1
Procedure: as §1

PKCα = PKCα (Homo sapiens, UniProt P17252); experiment: Kinase selectivity profiling, Protein kinase C-α; format: biochemical; conditions: read-out: Percentage inhibition of PKCα
Procedure: as §1

p38α = p38α (Homo sapiens, UniProt Q16539); experiment: Kinase selectivity profiling, Mitogen-activated protein kinase 14; format: biochemical; conditions: read-out: Percentage inhibition of p38α
Procedure: as §1

IGF1R = IGF1R (Homo sapiens, UniProt P08069); experiment: Kinase selectivity profiling, Insulin-like growth factor 1 receptor; format: biochemical; conditions: read-out: Percentage inhibition of IGF1R
Procedure: as §1

HCT116 cells [1] = experiment: Limiting dilution analysis of sphere formation, HCT116; format: cell-based, human
Procedure: One million HCT116 and DLD-1 cells were seeded onto 60-mm plates and treated with vehicle (DMSO) or compounds (0.1, 0.3 or 1.0 μM) for either 3 or 4 days. After washing off the compounds, the cells were dissociated to single cells in serum-free DMEM/F12 medium (Thermo Fisher Scientific) containing B27 (Thermo Fisher Scientific), 20 ng ml^−1 epidermal growth factor (EGF; Thermo Fisher Scientific), 10 ng ml^−1 basic fibroblast factor (bFGF; Thermo Fisher Scientific), 5 μg ml^−1 insulin (Thermo Fisher Scientific), 0.4% bovine serum albumin (Sigma-Aldrich) and 2 mM L-glutamine (Thermo Fisher Scientific). One hundred, 10 or 1 viable (determined by trypan-blue dye exclusion) cells were seeded into each well of a 96-well U-bottom PrimeSurface plate (Sumitomo Bakelite). Ten days later, the number of wells showing sphere formation was counted. The frequency of sphere-forming cells was calculated using ELDA software (http://bioinf.wehi.edu.au/software/elda/index.html) provided by the Walter and Eliza Hall Institute (Fig. 5c; Supplementary Table 2). Experiments were performed in triplicate and repeated at least two times.

HCT116 cells [2] = experiment: Cell cycle analysis by flow cytometry; format: cell-based, human; conditions: HCT116, 3 μM
Procedure: Cells were dissociated with Accutase, fixed with 70% EtOH at −20 °C, stained with Guava Cell Cycle reagent (Merck-Millipore) in accordance with the manufacturer's instructions, and analysed using a Guava easy Cyte HT flow cytometer (Merck-Millipore). Cell doublets were eliminated by doublet discrimination gating. Data were analyzed using FLOWJO version 10 software (Treestar; Fig. 3e). Experiments were performed in triplicate and repeated at least two times.

TYRO3 = TYRO3 (Homo sapiens, UniProt Q06418); experiment: Kinase selectivity profiling, Tyro3 receptor tyrosine kinase; format: biochemical; conditions: read-out: Percentage inhibition of TYRO3
Procedure: as §1

TRKA = TRKA (Homo sapiens, UniProt P04629); experiment: Kinase selectivity profiling, Tropomyosin receptor kinase A; format: biochemical; conditions: 0.1 µM inhibitor, ATP at Km; for inhibition at 0.1 µM: read-out: Percentage inhibition of TRKA
Procedure: as §1

[3] = HCT116, 3-day treatment, 0.1μM, 1 cell per well
[4] = HCT116, 3-day treatment, 0.1μM, 10 cells per well
[5] = HCT116, 3-day treatment, 0.1μM, 100 cells per well
[6] = HCT116, 3-day treatment, 0.3μM, 1 cell per well
[7] = HCT116, 3-day treatment, 0.3μM, 10 cells per well
[8] = HCT116, 3-day treatment, 0.3μM, 100 cells per well
[9] = HCT116, 3-day treatment, 1.0μM, 1 cell per well
[10] = HCT116, 3-day treatment, 1.0μM, 10 cells per well
[11] = HCT116, 3-day treatment, 1.0μM, 100 cells per well
[12] = HCT116, 4-day treatment, 0.1μM, 1 cell per well
[13] = HCT116, 4-day treatment, 0.1μM, 10 cells per well
[14] = HCT116, 4-day treatment, 0.1μM, 100 cells per well
[15] = HCT116, 4-day treatment, 0.3μM, 1 cell per well
[16] = HCT116, 4-day treatment, 0.3μM, 10 cells per well
[17] = HCT116, 4-day treatment, 0.3μM, 100 cells per well
[18] = HCT116, 4-day treatment, 1.0μM, 1 cell per well
[19] = HCT116, 4-day treatment, 1.0μM, 10 cells per well
[20] = HCT116, 4-day treatment, 1.0μM, 100 cells per well

Chain of TRKA (P04629 33-796): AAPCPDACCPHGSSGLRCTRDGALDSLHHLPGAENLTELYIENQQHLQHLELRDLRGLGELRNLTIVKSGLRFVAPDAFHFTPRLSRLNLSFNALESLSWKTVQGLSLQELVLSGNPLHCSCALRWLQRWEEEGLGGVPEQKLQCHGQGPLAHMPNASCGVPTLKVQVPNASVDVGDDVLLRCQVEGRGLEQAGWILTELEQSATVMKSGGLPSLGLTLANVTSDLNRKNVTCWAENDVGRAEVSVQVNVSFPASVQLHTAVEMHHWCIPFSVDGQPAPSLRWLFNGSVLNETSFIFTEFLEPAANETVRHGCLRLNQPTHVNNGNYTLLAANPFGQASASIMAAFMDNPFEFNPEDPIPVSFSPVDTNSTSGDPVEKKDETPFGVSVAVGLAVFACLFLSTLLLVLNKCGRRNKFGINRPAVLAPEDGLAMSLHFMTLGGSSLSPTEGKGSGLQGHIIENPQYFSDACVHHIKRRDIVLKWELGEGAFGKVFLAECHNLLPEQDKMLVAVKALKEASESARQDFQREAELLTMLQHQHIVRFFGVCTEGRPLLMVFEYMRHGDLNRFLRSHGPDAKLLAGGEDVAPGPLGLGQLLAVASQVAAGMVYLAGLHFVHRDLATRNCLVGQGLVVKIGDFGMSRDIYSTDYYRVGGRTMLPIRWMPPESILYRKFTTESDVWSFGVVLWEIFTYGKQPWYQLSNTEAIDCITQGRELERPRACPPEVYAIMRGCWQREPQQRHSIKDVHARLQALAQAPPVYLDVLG
Chain of TYRO3 (Q06418 41-890): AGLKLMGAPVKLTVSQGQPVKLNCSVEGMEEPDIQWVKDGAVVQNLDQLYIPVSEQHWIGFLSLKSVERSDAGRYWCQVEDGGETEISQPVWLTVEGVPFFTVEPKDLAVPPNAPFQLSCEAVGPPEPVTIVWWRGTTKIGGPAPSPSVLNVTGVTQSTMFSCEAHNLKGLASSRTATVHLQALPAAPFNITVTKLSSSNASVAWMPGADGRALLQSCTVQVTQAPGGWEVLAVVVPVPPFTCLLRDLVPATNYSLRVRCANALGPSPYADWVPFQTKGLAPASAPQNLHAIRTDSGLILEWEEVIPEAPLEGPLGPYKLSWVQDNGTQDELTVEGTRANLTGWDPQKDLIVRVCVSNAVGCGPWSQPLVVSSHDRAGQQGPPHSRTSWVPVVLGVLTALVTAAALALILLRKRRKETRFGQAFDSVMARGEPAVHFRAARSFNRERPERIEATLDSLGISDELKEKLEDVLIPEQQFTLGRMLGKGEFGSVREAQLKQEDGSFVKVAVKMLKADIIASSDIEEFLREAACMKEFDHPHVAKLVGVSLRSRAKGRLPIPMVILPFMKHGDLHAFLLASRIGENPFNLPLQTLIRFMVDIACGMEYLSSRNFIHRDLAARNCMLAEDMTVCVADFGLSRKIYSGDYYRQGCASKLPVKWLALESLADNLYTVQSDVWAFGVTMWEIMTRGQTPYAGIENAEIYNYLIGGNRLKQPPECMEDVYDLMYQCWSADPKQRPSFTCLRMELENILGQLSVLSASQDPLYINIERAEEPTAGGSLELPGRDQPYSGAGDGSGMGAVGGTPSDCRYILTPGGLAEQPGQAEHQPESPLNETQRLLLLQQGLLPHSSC
Chain of PIM1 (P11309 whole entry): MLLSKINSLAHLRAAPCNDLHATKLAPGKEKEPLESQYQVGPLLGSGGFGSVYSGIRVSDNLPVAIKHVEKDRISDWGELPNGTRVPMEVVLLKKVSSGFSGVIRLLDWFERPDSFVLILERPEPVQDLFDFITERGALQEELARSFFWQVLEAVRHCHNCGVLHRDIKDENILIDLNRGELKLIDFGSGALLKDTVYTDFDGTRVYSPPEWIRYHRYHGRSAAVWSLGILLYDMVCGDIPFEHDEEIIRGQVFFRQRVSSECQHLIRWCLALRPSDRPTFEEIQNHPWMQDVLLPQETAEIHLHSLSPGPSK
Chain of IGF1R (P08069 31-1367): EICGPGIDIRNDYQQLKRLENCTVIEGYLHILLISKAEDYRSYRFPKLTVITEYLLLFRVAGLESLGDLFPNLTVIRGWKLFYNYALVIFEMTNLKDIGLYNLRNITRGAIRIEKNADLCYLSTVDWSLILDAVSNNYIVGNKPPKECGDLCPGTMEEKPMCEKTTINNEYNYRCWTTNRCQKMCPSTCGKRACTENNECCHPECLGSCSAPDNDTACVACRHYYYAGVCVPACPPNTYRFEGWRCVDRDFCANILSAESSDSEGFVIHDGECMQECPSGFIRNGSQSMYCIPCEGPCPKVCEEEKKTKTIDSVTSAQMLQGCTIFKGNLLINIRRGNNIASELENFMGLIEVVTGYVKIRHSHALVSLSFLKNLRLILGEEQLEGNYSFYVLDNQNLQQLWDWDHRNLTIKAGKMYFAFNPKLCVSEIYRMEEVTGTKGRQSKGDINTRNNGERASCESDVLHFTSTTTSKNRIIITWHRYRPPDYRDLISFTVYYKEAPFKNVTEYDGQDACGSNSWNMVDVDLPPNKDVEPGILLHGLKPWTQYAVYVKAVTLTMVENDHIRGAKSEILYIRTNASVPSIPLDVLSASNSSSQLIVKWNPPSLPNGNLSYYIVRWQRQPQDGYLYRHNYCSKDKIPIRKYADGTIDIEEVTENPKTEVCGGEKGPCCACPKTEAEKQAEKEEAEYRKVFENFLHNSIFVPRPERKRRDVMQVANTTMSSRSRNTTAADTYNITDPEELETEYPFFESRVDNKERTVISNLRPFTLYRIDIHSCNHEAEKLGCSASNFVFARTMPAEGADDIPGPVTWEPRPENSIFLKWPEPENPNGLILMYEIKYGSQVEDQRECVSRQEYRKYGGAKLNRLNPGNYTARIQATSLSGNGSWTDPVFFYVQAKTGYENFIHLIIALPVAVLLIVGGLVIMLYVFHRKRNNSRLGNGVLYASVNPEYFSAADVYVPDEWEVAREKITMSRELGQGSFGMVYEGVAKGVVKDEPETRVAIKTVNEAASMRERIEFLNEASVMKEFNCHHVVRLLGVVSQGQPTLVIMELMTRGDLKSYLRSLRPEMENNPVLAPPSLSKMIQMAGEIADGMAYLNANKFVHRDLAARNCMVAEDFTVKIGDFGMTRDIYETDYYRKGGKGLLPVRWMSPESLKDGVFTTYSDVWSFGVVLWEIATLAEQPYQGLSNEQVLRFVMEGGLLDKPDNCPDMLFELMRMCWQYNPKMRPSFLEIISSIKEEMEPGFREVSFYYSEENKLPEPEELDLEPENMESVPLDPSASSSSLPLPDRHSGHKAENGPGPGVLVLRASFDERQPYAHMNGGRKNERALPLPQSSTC
Chain of p38α (Q16539 whole entry): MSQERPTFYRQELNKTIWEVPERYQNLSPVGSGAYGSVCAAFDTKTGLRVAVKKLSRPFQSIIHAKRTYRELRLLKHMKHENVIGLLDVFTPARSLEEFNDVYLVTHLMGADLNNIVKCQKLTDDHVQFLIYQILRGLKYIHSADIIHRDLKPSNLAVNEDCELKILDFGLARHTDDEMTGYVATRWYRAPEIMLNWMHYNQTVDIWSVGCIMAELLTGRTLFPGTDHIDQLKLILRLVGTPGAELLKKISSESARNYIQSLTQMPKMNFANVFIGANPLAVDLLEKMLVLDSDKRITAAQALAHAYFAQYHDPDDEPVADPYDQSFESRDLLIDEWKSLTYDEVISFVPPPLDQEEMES

| Compound | inhibition at 0.1 µM (ROCK1) [%] | inhibition at 0.1 µM (PYK2) [%] | inhibition at 0.1 µM (JAK3) [%] | inhibition at 0.1 µM (PIM1) [%] | inhibition at 0.1 µM (PKCα) [%] | inhibition at 0.1 µM (p38α) [%] | inhibition at 0.1 µM (IGF1R) [%] | Sphere-containing wells/total wells (HCT116 cells [1]; [3]) | Sphere-containing wells/total wells (HCT116 cells [1]; [4]) | Sphere-containing wells/total wells (HCT116 cells [1]; [5]) | Sphere-containing wells/total wells (HCT116 cells [1]; [6]) | Sphere-containing wells/total wells (HCT116 cells [1]; [7]) | Sphere-containing wells/total wells (HCT116 cells [1]; [8]) | Sphere-containing wells/total wells (HCT116 cells [1]; [9]) | Sphere-containing wells/total wells (HCT116 cells [1]; [10]) | Sphere-containing wells/total wells (HCT116 cells [1]; [11]) | Sphere-containing wells/total wells (HCT116 cells [1]; [12]) | Sphere-containing wells/total wells (HCT116 cells [1]; [13]) | Sphere-containing wells/total wells (HCT116 cells [1]; [14]) | Sphere-containing wells/total wells (HCT116 cells [1]; [15]) | further results |
| --- | --- | --- | --- | --- | --- | --- | --- | --- | --- | --- | --- | --- | --- | --- | --- | --- | --- | --- | --- | --- | --- |
| O[C@H]1CC[C@@H](Oc2cccc3cnc(Nc4ccc5nc[nH]c5c4)nc23)CC1 [NCB-0846, cis-4-(2-(3H-benzo[d]imidazol-5-ylamino)quinazolin-8-yloxy)cyclohexanol] | 20.1 | 73 | > 80 | -3.1 | -0.9 | -3.5 | 10.7 | 60/96 | 96/96 | 96/96 | 47/96 | 96/96 | 96/96 | 3/96 | 21/96 | 95/96 | 69/96 | 96/96 | 96/96 | 41/96 | Percentage inhibition of JAK3 (JAK3; 0.1 µM): 96.3%; Sphere-containing wells/total wells (HCT116 cells [1]; [16]): 96/96; Sphere-containing wells/total wells (HCT116 cells [1]; [17]): 96/96; Sphere-containing wells/total wells (HCT116 cells [1]; [18]): 0/96; Sphere-containing wells/total wells (HCT116 cells [1]; [19]): 19/96; Sphere-containing wells/total wells (HCT116 cells [1]; [20]): 93/96; sphere formation activity (HCT116 cells [1]; HCT116, short-term (3–4 days) treatment): significantly abrogated; >4N (%) (HCT116 cells [2]; 24 h): 6.1%; G0/G1 (%) (HCT116 cells [2]; 24 h): 20.6%; G2/M (%) (HCT116 cells [2]; 24 h): 30.6%; S (%) (HCT116 cells [2]; 24 h): 14.1%; SubG1 (%) (HCT116 cells [2]; 24 h): 28.6%; >4N (%) (HCT116 cells [2]; 48 h): 3.1%; G0/G1 (%) (HCT116 cells [2]; 48 h): 18.3%; G2/M (%) (HCT116 cells [2]; 48 h): 20.1%; S (%) (HCT116 cells [2]; 48 h): 11.1%; SubG1 (%) (HCT116 cells [2]; 48 h): 47.4%; inhibition at 0.1 µM (TYRO3): 48.9%; Percentage inhibition of TRKA (TRKA; 0.1 µM): 89.1%; inhibition at 0.1 µM (TRKA): > 80% |
| O[C@H]1CC[C@H](Oc2cccc3cnc(Nc4ccc5nc[nH]c5c4)nc23)CC1 [NCB-0970] | 9.7 | 23.6 | 85.4 | -5 | 1.4 | -2.8 | 1.2 | 62/96 | 96/96 | 96/96 | 65/96 | 96/96 | 96/96 | 60/96 | 96/96 | 96/96 | 59/96 | 96/96 | 96/96 | 60/96 | Sphere-containing wells/total wells (HCT116 cells [1]; [16]): 96/96; Sphere-containing wells/total wells (HCT116 cells [1]; [17]): 96/96; Sphere-containing wells/total wells (HCT116 cells [1]; [18]): 56/96; Sphere-containing wells/total wells (HCT116 cells [1]; [19]): 96/96; Sphere-containing wells/total wells (HCT116 cells [1]; [20]): 96/96; >4N (%) (HCT116 cells [2]; 24 h): 9.1%; G0/G1 (%) (HCT116 cells [2]; 24 h): 24.5%; G2/M (%) (HCT116 cells [2]; 24 h): 35.8%; S (%) (HCT116 cells [2]; 24 h): 10.7%; SubG1 (%) (HCT116 cells [2]; 24 h): 20%; >4N (%) (HCT116 cells [2]; 48 h): 8.5%; G0/G1 (%) (HCT116 cells [2]; 48 h): 21%; G2/M (%) (HCT116 cells [2]; 48 h): 40.3%; S (%) (HCT116 cells [2]; 48 h): 10.7%; SubG1 (%) (HCT116 cells [2]; 48 h): 19.5%; inhibition at 0.1 µM (TYRO3): 23.9%; inhibition at 0.1 µM (TRKA): 81.6% |
